Data: US20260283206A1, “SWEETENER COMPOSITIONS” (CARGILL, INCORPORATED, priority 2023, published 2026)
“Also recorded” adds a separate entry of the source.

Experiment: Sensory panel assay of aqueous steviol glycoside solutions (roundtable consensus, descriptive analysis)
Format: in vivo
Details: 500 ppm in reverse osmosis water, panel of four; for Sensory Attribute Comments - Off-tastes (bitterness, metallic taste) / Sensory Attribute Comments - Sweetness (intensity / profile): compared against Reb A and Reb D/M
Protocol: Assays were carried out to characterize the sensory attributes, e.g., sweetness profile, of aqueous solutions of samples. Sensory attributes of the compositions were tested by a panel of individuals that are experienced in sensory testing. The experienced panelists assessed sensory attributes such as, but not limited to, bitterness, metallic notes, mouth drying, sweetness intensity, and sweetness linger. The panelists compared the sweeteners against Reb A and Reb D/M. To test each composition, the experienced panelists dispensed approximately 2-4 fl oz of each sample or solution into their own mouths, dispersed the solution by moving their tongues, and individually recorded a sensory attribute scale value. Between tasting solutions, the panelists were able to cleanse their palates with water and/or rice crackers.
Assays were carried out to characterize the sensory attributes of aqueous solutions. Sensory attributes were analyzed by a panel of four individuals using a roundtable consensus approach. All panelists used the assay method described above. The panelists provided a descriptive analysis of the samples. The sensory attributes of Reb A and Reb D/M are known, and thus Reb A and Reb D/M were used as comparative samples. The sweetness profile of Reb A is described in the art, for example in DuBois et al. (“Concentration—Repose Relationship of Sweeteners,” Sweeteners: Discovery, Molecular Design, and Chemoreception, Chapter 20, pages 261-276, American Chemical Society 1991).

SMILES | Sensory Attribute Comments - Off-tastes (bitterness, metallic taste) | Sensory Attribute Comments - Sweetness onset and rise | Sensory Attribute Comments - Sweetness (intensity / profile)
C=C1C[C@@]23CC[C@H]4[C@@](C)(CCC[C@@]4(C)C(=O)O[C@@H]4O[C@H](CO)[C@@H](O)[C@H](O)[C@H]4O[C@@H]4O[C@H](CO)[C@@H](O)[C@H](O)[C@H]4O)[C@@H]2CC[C@]1(O[C@@H]1O[C@H](CO)[C@@H](O)[C@H](O[C@@H]2O[C@H](CO)[C@@H](O)[C@H](O)[C@H]2O)[C@H]1O[C@@H]1OC[C@@H](C)[C@H](O)[C@H]1O)C3 [Sample 1, rebaudioside EM] | Off-tastes: Less bitter than Reb A. |  | 
C=C1CC23CCC4C(C)(C(=O)OC5OC(CO)C(O)C(OC6OC(CO)C(O)C(O)C6O)C5OC5OCC(O)C(O)C5O)CCCC4(C)C2CCC1(OC1OC(CO)C(O)C(OC2OC(CO)C(O)C(O)C2O)C1OC1OC(CO)C(O)C(O)C1O)C3 (stereo not drawn) [Sample 2, rebaudioside V2] | Off-tastes: Very faint bitterness. Quite clean sweetness. | (Reb D/M). Slight delay in onset (less delay than Sample; also recorded: very rapid rise | Sweetness: Higher peak sweetness than Sample 5
C=C1C[C@@]23CC[C@H]4[C@@](C)(CCC[C@@]4(C)C(=O)O[C@@H]4O[C@H](CO)[C@@H](O)[C@H](O)[C@H]4O)[C@@H]2CC[C@]1(O[C@@H]1O[C@H](CO)[C@@H](O)[C@H](O[C@@H]2O[C@H](CO)[C@@H](O)[C@H](O)[C@H]2O)[C@H]1O[C@@H]1O[C@H](CO)[C@@H](O)[C@H](O)[C@H]1O)C3 [Sample 3, rebaudioside A, reference compound] | Off-tastes: Typical Reb A bitterness, metallic taste. |  | Sweetness: Sweetness profile typical of Reb A.
